Values of other authors in patent US20220079889A1, “USE OF CANNABANOIDS IN THE TREATMENT OF PROLIFERATIVE DIABETIC RETINOPATHY” (VERDANT PHARMACEUTICALS, LLC, priority 2020, published 2022).

Conditions: typical value; cited from earlier work

Molecule | time of persistence in the target neovasculature
C=Cc1c(C)c2cc3nc(c(CC(=O)N[C@@H](CC(=O)O)C(=O)O)c4[nH]c(cc5nc(cc1[nH]2)C(C)=C5CC)c(C)c4C(=O)O)[C@@H](CCC(=O)O)[C@@H]3C [N-aspartyl chlorin e6] | about twenty
CC(=O)[O-].CC(=O)[O-].CCc1c(CC)c2cc3nc(cnc4cc(OCCOCCOCCOC)c(OCCOCCOCCOC)cc4ncc4nc(cc1[n-]2)C(CCCO)=C4C)C(C)=C3CCCO.O.[Lu+3] [lutetium texaphyrin] | about twenty
benzoporphyrin derivative [bcnzoporphyrin derivative] | about fifty
